One experiment in a line: Taste of blends with siamenoside I, findings summarised in the description. The settings on record: blended with siamenoside I in certain ratios.
Take `C[C@H](CC[C@@H](O[C@@H]1O[C@H](CO[C@@H]2O[C@H](CO)[C@@H](O)[C@H](O)[C@H]2O)[C@@H](O)[C@H](O)[C@H]1O[C@@H]1O[C@H](CO)[C@@H](O)[C@H](O)[C@H]1O)C(C)(C)O)[C@H]1CC[C@@]2(C)C3CC=C4[C@@H](CC[C@H](O[C@@H]5O[C@H](CO)[C@@H](O[C@@H]6O[C@H](CO)[C@@H](O)[C@H](O)[C@H]6O)[C@H](O)[C@H]5O)C4(C)C)[C@]3(C)[C@H](O)C[C@]12C` (stereo partly drawn) [Isomogroside V]: the “taste attributes when blended with siamenoside I vs siamenoside I only sweetened beverages” value is “less objectionable taste attributes”.

For `C[C@H](CC[C@@H](O[C@@H]1O[C@H](CO[C@@H]2O[C@H](CO)[C@@H](O)[C@H](O)[C@H]2O)[C@@H](O)[C@H](O)[C@H]1O)C(C)(C)O)[C@H]1CC[C@@]2(C)C3CC=C4[C@@H](CC[C@H](O[C@@H]5O[C@H](CO)[C@@H](O)[C@H](O)[C@H]5O)C4(C)C)[C@]3(C)C(=O)C[C@]12C` (stereo partly drawn) [11-Oxomogroside III], the “taste attributes when blended with siamenoside I vs siamenoside I only sweetened beverages” value is on record as “less objectionable taste attributes”.

In the case of `C[C@H](CC[C@@H](O[C@@H]1O[C@H](CO[C@@H]2O[C@H](CO)[C@@H](O)[C@H](O)[C@H]2O)[C@@H](O)[C@H](O)[C@H]1O[C@@H]1O[C@H](CO)[C@@H](O)[C@H](O)[C@H]1O)C(C)(C)O)[C@H]1CC[C@@]2(C)C3CC=C4[C@@H](CC[C@H](O[C@@H]5O[C@H](CO[C@@H]6O[C@H](CO)[C@@H](O)[C@H](O)[C@H]6O)[C@@H](O)[C@H](O)[C@H]5O)C4(C)C)[C@]3(C)[C@H](O)C[C@]12C` (stereo partly drawn) [11-Oxomogroside V], the “taste attributes when blended with siamenoside I vs siamenoside I only sweetened beverages” value was “less objectionable taste attributes”.

As to `C[C@H](CC[C@@H](O[C@@H]1O[C@H](CO[C@@H]2O[C@H](CO)[C@@H](O)[C@H](O)[C@H]2O)[C@@H](O)[C@H](O)[C@H]1O[C@@H]1O[C@H](CO)[C@@H](O)[C@H](O)[C@H]1O)C(C)(C)O)[C@H]1CC[C@@]2(C)C3CC=C4[C@@H](CC[C@H](O[C@@H]5O[C@H](CO)[C@@H](O[C@@H]6O[C@H](CO)[C@@H](O)[C@H](O)[C@H]6O)[C@H](O)[C@H]5O)C4(C)C)[C@]3(C)C(=O)C[C@]12C` (stereo partly drawn) [11-Oxoisomogroside V, 11- Oxoisomogroside V], the “taste attributes when blended with siamenoside I vs siamenoside I only sweetened beverages” value is “less objectionable taste attributes”.

For `C[C@H](CC[C@@H](O[C@@H]1O[C@H](CO)[C@@H](O)[C@H](O)[C@H]1O)C(C)(C)O)[C@H]1CC[C@@]2(C)C3CC=C4[C@@H](CC[C@H](O[C@@H]5O[C@H](CO)[C@@H](O)[C@H](O)[C@H]5O)C4(C)C)[C@]3(C)[C@H](O)C[C@]12C` (stereo partly drawn) [Mogroside IIE], the “taste attributes when blended with siamenoside I vs siamenoside I only sweetened beverages” value is given as “less objectionable taste attributes”.

Regarding `C[C@H](CC[C@@H](O[C@@H]1O[C@H](CO[C@@H]2O[C@H](CO)[C@@H](O)[C@H](O)[C@H]2O)[C@@H](O)[C@H](O)[C@H]1O)C(C)(C)O)[C@H]1CC[C@@]2(C)C3CC=C4[C@@H](CC[C@H](O[C@@H]5O[C@H](CO)[C@@H](O)[C@H](O)[C@H]5O)C4(C)C)[C@]3(C)[C@H](O)C[C@]12C` (stereo partly drawn) [Mogroside III], the “taste attributes when blended with siamenoside I vs siamenoside I only sweetened beverages” value was “less objectionable taste attributes”.

Staying with this experiment, now noted: in certain blends.
As for `C[C@H](CC[C@@H](O)C(C)(C)O)[C@H]1CC[C@@]2(C)C3CC=C4[C@@H](CC[C@H](O[C@@H]5O[C@H](CO)[C@@H](O)[C@H](O)[C@H]5O)C4(C)C)[C@]3(C)[C@H](O)C[C@]12C` (stereo partly drawn) [Mogroside IE], the “perception of bitterness in blends” value is on record as “increase the perception of bitterness”.

With `C[C@H](CC[C@@H](O)C(C)(C)O)[C@H]1CC[C@@]2(C)[C@@H]3CC=C4[C@@H](CC[C@H](O[C@@H]5O[C@H](CO[C@@H]6O[C@H](CO)[C@@H](O)[C@H](O)[C@H]6O)[C@@H](O)[C@H](O)[C@H]5O)C4(C)C)[C@]3(C)[C@H](O)C[C@]12C` [Mogroside IIA2], the “perception of bitterness in blends” value is “increase the perception of bitterness”.

`C[C@H](CC[C@@H](O[C@@H]1O[C@H](CO)[C@@H](O)[C@H](O)[C@H]1O[C@@H]1O[C@H](CO)[C@@H](O)[C@H](O)[C@H]1O)C(C)(C)O)[C@H]1CC[C@@]2(C)[C@@H]3CC=C4[C@@H](CC[C@H](O)C4(C)C)[C@]3(C)C(=O)C[C@]12C` [11-Oxomogroside IIA]: the “perception of bitterness in blends” value is recorded as “increase the perception of bitterness”.

As to `C[C@H](CC[C@@H](O[C@@H]1O[C@H](CO[C@@H]2O[C@H](CO)[C@@H](O)[C@H](O)[C@H]2O)[C@@H](O)[C@H](O)[C@H]1O)C(C)(C)O)[C@H]1CC[C@@]2(C)C3CC=C4[C@@H](CC[C@H](O[C@@H]5O[C@H](CO)[C@@H](O)[C@H](O)[C@H]5O)C4(C)C)[C@]3(C)C(=O)C[C@]12C` (stereo partly drawn) [11-Oxomogroside III], the “perception of bitterness in blends” value is on record as “increase the perception of bitterness”.

Turning to `C[C@H](CC[C@@H](O[C@@H]1O[C@H](CO)[C@@H](O)[C@H](O)[C@H]1O)C(C)(C)O)[C@H]1CC[C@@]2(C)C3CC=C4[C@@H](CC[C@H](O[C@@H]5O[C@H](CO[C@@H]6O[C@H](CO)[C@@H](O)[C@H](O)[C@H]6O)[C@@H](O)[C@H](O)[C@H]5O)C4(C)C)[C@]3(C)[C@H](O)C[C@]12C` (stereo partly drawn) [Mogroside IIIA2], the “perception of bitterness in blends” value is listed as “increase the perception of bitterness”.

Take `C[C@H](CC[C@@H](O[C@@H]1O[C@H](CO[C@@H]2O[C@H](CO)[C@@H](O)[C@H](O)[C@H]2O)[C@@H](O)[C@H](O)[C@H]1O)C(C)(C)O)[C@H]1CC[C@@]2(C)C3CC=C4[C@@H](CC[C@H](O)C4(C)C)[C@]3(C)C(=O)C[C@]12C` (stereo partly drawn) [11-Oxomogroside IIA1]: the “perception of bitterness in blends” value is “increase the perception of bitterness”.

For the compound `C[C@H](CC[C@@H](O)C(C)(C)O)[C@H]1CC[C@@]2(C)[C@@H]3CC=C4[C@@H](CC[C@H](O[C@@H]5O[C@H](CO[C@@H]6O[C@H](CO)[C@@H](O)[C@H](O)[C@H]6O)[C@@H](O)[C@H](O)[C@H]5O)C4(C)C)[C@]3(C)C(=O)C[C@]12C` [11-Oxomogroside IIA2], the “perception of bitterness in blends” value is on record as “increase the perception of bitterness”.

As for `C[C@H](CC[C@@H](O[C@@H]1O[C@H](CO)[C@@H](O)[C@H](O)[C@H]1O)C(C)(C)O)[C@H]1CC[C@@]2(C)C3CC=C4[C@@H](CC[C@H](O[C@@H]5O[C@H](CO)[C@@H](O)[C@H](O)[C@H]5O)C4(C)C)[C@]3(C)C(=O)C[C@]12C` (stereo partly drawn) [11-Oxomogroside IIE], the “perception of bitterness in blends” value is “increase the perception of bitterness”.

Consider `C[C@H](CC[C@@H](O[C@@H]1O[C@H](CO)[C@@H](O)[C@H](O)[C@H]1O[C@@H]1O[C@H](CO)[C@@H](O)[C@H](O)[C@H]1O)C(C)(C)O)[C@H]1CC[C@@]2(C)[C@@H]3CC=C4[C@@H](CC[C@H](O)C4(C)C)[C@]3(C)[C@H](O)C[C@]12C` [Mogroside IIA], for which the “perception of bitterness in blends” value is recorded as “increase the perception of bitterness”.

Turning to `C[C@H](CC[C@@H](O[C@@H]1O[C@H](CO)[C@@H](O)[C@H](O)[C@H]1O)C(C)(C)O)[C@H]1CC[C@@]2(C)C3CC=C4[C@@H](CC[C@H](O)C4(C)C)[C@]3(C)[C@H](O)C[C@]12C` (stereo partly drawn) [Mogroside IA], the “perception of bitterness in blends” value is “increase the perception of bitterness”.

Regarding `C[C@H](CC[C@@H](O[C@@H]1O[C@H](CO[C@@H]2O[C@H](CO)[C@@H](O)[C@H](O)[C@H]2O)[C@@H](O)[C@H](O)[C@H]1O)C(C)(C)O)[C@H]1CC[C@@]2(C)C3CC=C4[C@@H](CC[C@H](O[C@@H]5O[C@H](CO[C@@H]6O[C@H](CO)[C@@H](O)[C@H](O)[C@H]6O)[C@@H](O)[C@H](O)[C@H]5O)C4(C)C)[C@]3(C)[C@H](O)C[C@]12C` (stereo partly drawn) [Mogroside IVA], the “perception of bitterness in blends” value is reported as “increase the perception of bitterness”.

As to `C[C@H](CC[C@@H](O[C@@H]1O[C@H](CO[C@@H]2O[C@H](CO)[C@@H](O)[C@H](O)[C@H]2O)[C@@H](O)[C@H](O)[C@H]1O)C(C)(C)O)[C@H]1CC[C@@]2(C)C3CC=C4[C@@H](CC[C@H](O)C4(C)C)[C@]3(C)[C@H](O)C[C@]12C` (stereo partly drawn) [Mogroside IIA1], the “perception of bitterness in blends” value is listed as “increase the perception of bitterness”.

Staying with this experiment, now noted: when present in certain amounts in blends with siamenoside I.
As for 11-oxomogroside I, the “impact on bitterness in blends with siamenoside I” value (shortened to “impact on bitterness in blends”) was “do not impact bitterness”.

With `C[C@H](CC[C@@H](O[C@@H]1O[C@H](CO)[C@@H](O)[C@H](O)[C@H]1O[C@@H]1O[C@H](CO)[C@@H](O)[C@H](O)[C@H]1O)C(C)(C)O)[C@H]1CC[C@@]2(C)C3CC=C4[C@@H](CC[C@H](O[C@@H]5O[C@H](CO)[C@@H](O)[C@H](O)[C@H]5O)C4(C)C)[C@]3(C)[C@H](O)C[C@]12C` (stereo partly drawn) [Mogroside IIIE], the “impact on bitterness in blends” value is listed as “do not impact bitterness”.

In the case of `C[C@H](CC[C@@H](O[C@@H]1O[C@H](CO[C@@H]2O[C@H](CO)[C@@H](O)[C@H](O)[C@H]2O)[C@@H](O)[C@H](O)[C@H]1O[C@@H]1O[C@H](CO)[C@@H](O)[C@H](O)[C@H]1O)C(C)(C)O)[C@H]1CC[C@@]2(C)[C@@H]3CC=C4[C@@H](CC[C@H](O[C@@H]5O[C@H](CO[C@@H]6O[C@H](CO)[C@@H](O)[C@H](O)[C@H]6O)[C@@H](O)[C@H](O)[C@H]5O)C4(C)C)[C@]3(C)[C@H](O)C[C@]12C` [Mogroside V], the “impact on bitterness in blends” value was “do not impact bitterness”.

Values taken from US20260223897A1, “SIAMENOSIDE I SWEETENED BEVERAGES WITH MOGROSIDE BLENDS” (The Coca-Cola Company, priority 2023, published 2026).
